# Results taken from publication PMC6915745, “TRIB3 supports breast cancer stemness by suppressing FOXO1 degradation and enhancing SOX2 transcription” (Nature Communications, 2019).
# Like-named read-outs stand apart in the source and are kept apart here. Peptide text beside a SMILES is read from it. * marks the point of attachment. Cbz = O=C(OCc1ccccc1)*
# Legend:
# FOXO1 [1] = assay: FOXO1 immunoblot in control or TRIB3-silenced MDA-MB-231 cells with BAF or MG132; type: cell-based; conditions: BAF 200 nM or MG132 10 μM, 8 h, in words
# Description: (§1) Fig. 5 TRIB3 stabilizes the FOXO1 protein by suppressing its ubiquitination. a, b HMLE cells transfected with a TRIB3-expressing vector vs. a control vector (a) or MCF7 cells transfected with TRIB3-shRNA vs. CTRL-shRNA (b) were incubated with 20 μM cycloheximide (CHX) for the indicated times. c, d The effect of TRIB3 depletion on FOXO1 degradation in vitro. MCF7 cells (c) were incubated with CHX (20 μM), CHX plus bafilomycin (BAF, 200 nM), or MG132 (10 μM) for the indicated times. Control or TRIB3-silenced MCF7 cells (d, top) and MDA-MB-231 cells (d, bottom) were incubated with DMSO, 200 nM BAF, or 10 μM MG132 for 8 h. The indicated proteins were detected by immunoblotting. e, f FOXO1 activity in HMLE cells (e) transfected with a control vector or a TRIB3-expressing vector, or in MCF7 cells (f) transfected with CTRL-shRNA or TRIB3-shRNA and either a control vector or a FOXO1-expressing vector. g, h The effect of TRIB3 on FOXO1 ubiquitination. HMLE (g) or MCF7 cells (h) were transfected with the indicated plasmid. His-ubiquitin-conjugated proteins were pulled down from cell lysates. Total protein lysates and Ni-NTA-agarose eluates were immunoblotted for FLAG, His, and TRIB3. […]
# (§2) Cycloheximide (CHX; Sigma Aldrich, R750107) was used as a protein synthesis inhibitor to assess the stability of the existing proteins. […] The protein concentrations were determined by BCA Protein Assay Kits (Pierce). […]
# FOXO1 [2] = assay: FOXO1 protein stability (cycloheximide chase), MCF7 cells; type: cell-based, human; conditions: for degradation of FOXO1: CHX 20 μM plus BAF 200 nM or MG132 10 μM, in words; for FOXO1 half-life: CHX, authors' reply to reviewers, control about 3 hr
# Description: Fig. 5 TRIB3 stabilizes the FOXO1 protein by suppressing its ubiquitination. a, b HMLE cells transfected with a TRIB3-expressing vector vs. a control vector (a) or MCF7 cells transfected with TRIB3-shRNA vs. CTRL-shRNA (b) were incubated with 20 μM cycloheximide (CHX) for the indicated times. c, d The effect of TRIB3 depletion on FOXO1 degradation in vitro. MCF7 cells (c) were incubated with CHX (20 μM), CHX plus bafilomycin (BAF, 200 nM), or MG132 (10 μM) for the indicated times. Control or TRIB3-silenced MCF7 cells (d, top) and MDA-MB-231 cells (d, bottom) were incubated with DMSO, 200 nM BAF, or 10 μM MG132 for 8 h. The indicated proteins were detected by immunoblotting. e, f FOXO1 activity in HMLE cells (e) transfected with a control vector or a TRIB3-expressing vector, or in MCF7 cells (f) transfected with CTRL-shRNA or TRIB3-shRNA and either a control vector or a FOXO1-expressing vector. g, h The effect of TRIB3 on FOXO1 ubiquitination. HMLE (g) or MCF7 cells (h) were transfected with the indicated plasmid. His-ubiquitin-conjugated proteins were pulled down from cell lysates. Total protein lysates and Ni-NTA-agarose eluates were immunoblotted for FLAG, His, and TRIB3. Source data are provided as a Source Data file. […] I left them out because their labels are genetic constructs, not substances; their digits are also small
# (§3) Cycloheximide (CHX; Sigma Aldrich, R750107) was used as a protein synthesis inhibitor to assess the stability of the existing proteins. To assess protein stability, cells were treated with 20 μM CHX and the proteasome inhibitor MG132 (Sigma Aldrich, R750107) at 10 μM or the autophagy inhibitor BAF (Sigma Aldrich, B1793) at 200 nM for the indicated times. Protein expression was assessed via immunoblot analysis with cell lysates (20–60 μg) prepared in RIPA lysis buffer containing protease inhibitors (Roche) using anti-SOX2 (3529), anti-NANOG (4903), anti-OCT4 (2750), anti-KLF4 (4038), anti-c-Myc (13987), anti-FOXO1 (2880), anti-p-FOXO1 (9461), anti-AKT (4685), anti-p-AKT (4060), anti-β-ACTIN (4970), anti-Ubiquitin (3936), or anti-LaminA/C (4777) antibodies from CST; anti-TRIB3 antibody (ab75846) from Abcam; and anti-Trib3 antibody (PA5-15480) from Thermo Fisher Scientific[59]. All antibodies were used at 1:1000 dilution, with the exception of anti-β-Actin antibodies, which were used at 1:2000 dilution. The protein concentrations were determined by BCA Protein Assay Kits (Pierce). Proteins were separated by SDS-polyacrylamide gel electrophoresis (PAGE) and transferred to polyvinylidene difluoride membrane.
# FOXO1 [3] = assay: FOXO1 immunoblot in control or TRIB3-silenced MCF7 cells with BAF or MG132; type: cell-based, human; conditions: BAF 200 nM or MG132 10 μM, 8 h, in words
# Description: as §1, §2
# MCF7 cells = assay: TRIB3/AKT/FOXO1/SOX2 axis after IL-6, CoCl2 or high glucose, MCF7 cells (WB); type: cell-based, human
# [4] = test system: TRIB3-silenced MCF7 cells; assay: Immunoblot of AKT1/FOXO1/SOX2, TRIB3-silenced MCF7 cells with AKT1 inhibitor MK2206; type: cell-based, human; conditions: Fig.6e, MCF7, TRIB3-shRNA, v.s CTRL-shRNA+DMSO
# Description: (§4) Fig. 6 TRIB3 abrogates the AKT-FOXO1 interaction. a Supervised clustering of MCF7 cells transfected with CTRL-shRNA or TRIB3-shRNA using the log2-transformed values for genes in the FOXO1 upstream pathway, including AMPK, ERK, PI3K, p38, and JNK clustered genes expressed in all samples. Each column represents a separate case. Z-scores from IPA depicting the subnetwork gene expression differences between CTRL-shRNA and TRIB3-shRNA cases. The Z-score heat map depicts the five FOXO1 upstream subnetworks. Each row represents the data for the subnetwork indicated in the right margin. b, c TRIB3 inhibited the activity of AKT1 in BCCs. The indicated stable expression cell extracts were prepared and the levels of the indicated proteins were detected by immunoblotting. d, e The effects of the AKT1 agonist or antagonist for TRIB3-FOXO1-SOX2 axis in BCCs. The indicated cells were treated with the AKT1 agonist SC79 or the antagonist MK2206 for 24 h. […] HMLE cell extracts were IP with an anti-AKT1 Ab and blotted with an anti-TRIB3 or anti-FOXO1 Ab in the presence of the indicated concentration of the TRIB3-GST protein. Data are shown as the mean ± SEM; P > 0.05 was considered not significant (NS); *P < 0.05, **P < 0.01, and ***P < 0.001 compared with the vector or CTRL-shRNA group. Source data are provided as a Source Data file.
# as §3
# [5] = test system: HMLE cells overexpressing TRIB3; assay: Immunoblot of AKT1/FOXO1/SOX2, HMLE cells with AKT1 agonist SC79; type: cell-based, human; conditions: for Relative fold change AKT1 / Relative fold change FOXO1 / Relative fold change SOX2 / Relative fold change TRIB3 / Relative fold change p-AKT(473S) / Relative fold change p-FOXO1(256S): Fig.6d, HMLE, TRIB3-shRNA, v.s CTRL-shRNA+DMSO
# Description: as §4, §3
# TRIB3 = TRIB3 expression after cytokines or stressors, MCF7 cells (WB); type: cell-based, human; conditions: cytokines 8 hr, high glucose 24 hr
# Description: as §3, with “membrane. […]” for “membrane.”
# (f, g) The expression of
# TRIB3 in MCF7 cells (top) or MDA-MB-231 cells (bottom) treated with various concentrations of IL6 for
# 8 hr (f) or 10 ng/ml IL-6 for different amounts of time (g) was detected by WB. (h) Silencing TRIB3
# decreased the tumor sphere formation ability of MCF7 cells with or without IL-6 stimulation. […]
# Data are shown as the mean ± SEM; P>0.05 was considered not significant (N.S.); *P<0.05, **P<0.01
# and ***P<0.001, compared with the con group in panels d-f. Source data are provided as a Source Data
# TRIB3-GST protein = biological target: T1, TRIB3-GST protein (UniProt Q96RU7 1-358); assay: SPR
# T1 chain: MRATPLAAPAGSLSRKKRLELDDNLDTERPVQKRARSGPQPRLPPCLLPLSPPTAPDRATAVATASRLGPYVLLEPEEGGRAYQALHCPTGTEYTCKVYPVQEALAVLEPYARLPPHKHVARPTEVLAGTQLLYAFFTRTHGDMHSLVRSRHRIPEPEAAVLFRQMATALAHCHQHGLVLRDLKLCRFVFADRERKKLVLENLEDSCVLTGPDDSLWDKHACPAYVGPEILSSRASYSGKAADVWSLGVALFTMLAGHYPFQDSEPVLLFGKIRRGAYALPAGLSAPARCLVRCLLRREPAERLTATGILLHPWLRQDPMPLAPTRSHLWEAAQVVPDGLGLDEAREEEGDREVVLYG
# [6] = HMLE cells overexpressing TRIB3, 24 h
molecule,measurement,setting,value
"CO/C1=C\C(C)=C\[C@@H](C)[C@@H](O)[C@@H](C)C/C(C)=C/C=C/[C@H](OC)[C@@H]([C@@H](C)[C@@H](O)[C@H](C)[C@@]2(O)C[C@@H](O)[C@H](C)[C@@H](C(C)C)O2)OC1=O [BAF, bafilomycin]",inhibition of FOXO1 reduction caused by TRIB3 silencing,FOXO1 [1],not by BAF
same,degradation of FOXO1,FOXO1 [2],not by the autophagy inhibitor bafilomycin
same,inhibition of FOXO1 reduction caused by TRIB3 silencing,FOXO1 [3],not by BAF
"[Cl-].[Cl-].[Co+2] [CoCl2, reference compound]",expressions of FOXO1 and SOX2,MCF7 cells,enhance
O=c1cc(N2CCOCC2)oc2c(-c3ccccc3)cccc12 [LY294002],FOXO1 half-life,FOXO1 [2],4.4 h
CC(C)C[C@@H](C=O)NC(=O)[C@H](CC(C)C)NC(=O)[C@H](CC(C)C)NC(=O)OCc1ccccc1 [MG132] (Cbz-Leu-Leu-Leu-aldehyde),inhibition of FOXO1 reduction caused by TRIB3 silencing,FOXO1 [1],inhibited by MG132
same,degradation of FOXO1,FOXO1 [2],inhibited by the proteasome inhibitor MG132
same,FOXO1 half-life,FOXO1 [2],6 h
same,inhibition of FOXO1 reduction caused by TRIB3 silencing,FOXO1 [3],inhibited by MG132
NC1(c2ccc(-c3nc4ccn5c(=O)[nH]nc5c4cc3-c3ccccc3)cc2)CCC1 [MK-2206],Relative fold change AKT1,[4]; replicate 1,0.657
same,Relative fold change FOXO1,[4]; replicate 1,1.341
same,Relative fold change SOX2,[4]; replicate 1,0.604
same,Relative fold change TRIB3,[4]; replicate 1,0.180
same,Relative fold change p-AKT(473S),[4]; replicate 1,0.243
same,Relative fold change p-FOXO1(256S),[4]; replicate 1,0.564
same,Relative fold change AKT1,[4]; replicate 2,0.717
same,Relative fold change FOXO1,[4]; replicate 2,1.441
same,Relative fold change SOX2,[4]; replicate 2,0.664
same,Relative fold change TRIB3,[4]; replicate 2,0.200
same,Relative fold change p-AKT(473S),[4]; replicate 2,0.263
same,Relative fold change p-FOXO1(256S),[4]; replicate 2,0.614
same,Relative fold change AKT1,[4]; replicate 3,0.597
same,Relative fold change FOXO1,[4]; replicate 3,1.241
same,Relative fold change SOX2,[4]; replicate 3,0.544
same,Relative fold change TRIB3,[4]; replicate 3,0.160
same,Relative fold change p-AKT(473S),[4]; replicate 3,0.223
same,Relative fold change p-FOXO1(256S),[4]; replicate 3,0.514
CCOC(=O)C1=C(N)Oc2ccc(Cl)cc2C1C(C#N)C(=O)OCC (stereo not drawn) [SC79],Relative fold change AKT1,[5]; replicate 1,1.9500
same,Relative fold change FOXO1,[5]; replicate 1,0.4880
same,Relative fold change SOX2,[5]; replicate 1,5.8119
same,Relative fold change TRIB3,[5]; replicate 1,6.9492
same,Relative fold change p-AKT(473S),[5]; replicate 1,1.6733
same,Relative fold change p-FOXO1(256S),[5]; replicate 1,1.9882
same,Relative fold change AKT1,[5]; replicate 2,2.1500
same,Relative fold change FOXO1,[5]; replicate 2,0.5280
same,Relative fold change SOX2,[5]; replicate 2,6.4119
same,Relative fold change TRIB3,[5]; replicate 2,7.5492
same,Relative fold change p-AKT(473S),[5]; replicate 2,1.7733
same,Relative fold change p-FOXO1(256S),[5]; replicate 2,2.1782
same,Relative fold change AKT1,[5]; replicate 3,1.7500
same,Relative fold change FOXO1,[5]; replicate 3,0.4480
same,Relative fold change SOX2,[5]; replicate 3,5.2119
same,Relative fold change TRIB3,[5]; replicate 3,6.3492
same,Relative fold change p-AKT(473S),[5]; replicate 3,1.5733
same,Relative fold change p-FOXO1(256S),[5]; replicate 3,1.7982
same,FOXO1 and SOX2 expression,[5]; [6],inhibited FOXO1 and SOX2 expression
same,activity of AKT1 S473 and FOXO1 S256,[5]; [6],rescued the activity of AKT1^S473 and FOXO1^S256
"OC[C@H]1OC(O)[C@H](O)[C@@H](O)[C@@H]1O (stereo partly drawn) [high glucose, glucose]",TRIB3 expression,TRIB3,enhanced TRIB3 expression in MCF7 cells
same,expressions of FOXO1 and SOX2,"MCF7 cells; MCF7 cells, IL-6 12 hr, CoCl2 24 hr, high glucose 24 hr, WB",enhanced expressions of FOXO1 and SOX2
same,expressions of FOXO1 and SOX2,"MCF7 cells; MCF7 cells, IL-6 12 hr, CoCl2 24 hr, high glucose 24 hr, WB, listed as high-glucose",enhance
same,activity of FOXO1 S256,"MCF7 cells; MCF7 cells, IL-6 12 hr, high glucose 24 hr, WB",reduced the activity of FOXO1^S256
IL-1β: cytokine,TRIB3 expression,TRIB3,enhanced TRIB3 expression in MCF7 cells
transforming growth factor-β,TRIB3 expression,TRIB3,enhanced TRIB3 expression in MCF7 cells
tumor necrosis factor-α,TRIB3 expression,TRIB3,enhanced TRIB3 expression in MCF7 cells
EVAATLTENRVLQN [M3],Kd,TRIB3-GST protein,170 nM
EVAHTLTENRALQN [M10],Kd,TRIB3-GST protein,750 nM
VAHTLTENRVLQN [peptide Ae],Kd,TRIB3-GST protein,300 nM
